Source: patent publication US5026703A, “Peptide oxytocin antagonists” (priority 1990, dated 1991)
Counter-ions that a name gives are not always drawn. Like-named read-outs stand apart in the source and are kept apart here. *1 amine or outer side, *2 acyl side, *3 side chain or, on linkers, in order; H or OH if unused. Where a SMILES comes first, the peptide text is derived from it. [ ]: non-standard residue; d: D form. X12 = C=CCSC(=N[C@H](C(=O)[*:2])[C@@H](C)CC)[C@@H](Cc1ccccc1)N[*:1]; X14 = CCOC(=O)C(C(=O)OCC)C1C=NN([*:1])[C@H](C(=O)[*:2])C1; X2 = O=C([C@@H]1[C@@H](O)[C@@H](O)C=NN1[*:1])[*:2]; X6 = CN(C)C[C@H]1C=NN([*:1])[C@H](C(=O)[*:2])C1; X4 = CN(C)CCNC1C=NN([*:1])[C@H](C(=O)[*:2])C1; X10 = O=C1CC[C@@H](C(=O)[*:2])N([*:1])N1; Piz(1,6-dehydro) = O=C(O)[C@@H]1CCC=NN1; X3 = C=C1C=NN([*:1])[C@H](C(=O)[*:2])C1; X7 = CSC1=NN([*:1])[C@H](C(=O)[*:2])CC1; dPiz(1,6-dehydro) = O=C(O)[C@H]1CCC=NN1; X16 = CN1CCC[C@@H](C(=O)[*:2])N1[*:1]; X15 = CN1CCC[C@H](C(=O)[*:2])N1[*:1]; dNMeCha = CN[C@H](CC1CCCCC1)C(=O)O; X1 = O=C([C@H]1CCCNN1[*:1])[*:2]; dNMeF = CN[C@H](Cc1ccccc1)C(=O)O; dCha = N[C@H](CC1CCCCC1)C(=O)O

Legend:
[1] = molecular target: T1, uterine OT receptors (Rattus norvegicus, UniProt P70536); assay: [3H]OT radioligand binding to uterine OT receptors, crude membrane preparation
T1 construct: from tissue; host or cells: uterus of DES-treated rats, crude membranes
T1 sequence (P70536 1-388): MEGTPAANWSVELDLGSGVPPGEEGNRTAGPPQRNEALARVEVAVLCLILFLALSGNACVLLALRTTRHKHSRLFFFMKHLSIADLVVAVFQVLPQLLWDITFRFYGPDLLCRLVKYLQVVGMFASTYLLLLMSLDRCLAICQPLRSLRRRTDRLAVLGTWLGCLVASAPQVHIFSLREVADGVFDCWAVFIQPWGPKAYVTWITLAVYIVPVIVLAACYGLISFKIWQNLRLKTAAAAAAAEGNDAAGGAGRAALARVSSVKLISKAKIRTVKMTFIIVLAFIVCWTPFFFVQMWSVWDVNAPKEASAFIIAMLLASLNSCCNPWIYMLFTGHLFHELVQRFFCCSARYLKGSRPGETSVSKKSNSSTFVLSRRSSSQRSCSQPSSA
Description: The high affinity binding of [^3 H]OT ([tyrosyl, 3,5-[^3 H]OT; 30-60 Ci/mmol; New England Nuclear Boston, Mass.) to uterine OT receptors was based on an assay* using a crude membrane preparation of uteri taken from diethylstilbestrol dipropionate (DES)-treated (0.3 mg/kg, ip; 18-24) rats. Competition studies were conducted at equilibrium (60 min; 22° C.) using 1 nM [^3 H]OT in the following assay buffer: 50 mM Tris-HCl, 5 mM MgCl2, and 0.1% BSA, pH 7.4. Nonspecific binding (10% of the total binding) was determined using 1 μM unlabeled OT and the binding reaction was terminated by filtration through glass fiber filters using a cell harvester (model 7019, Skatron, Inc., Sterling, Va.).
*Fuchs, A-R; Fuchs, F; Soloff, MS. 1985 J. Clin. Endocrinol. Metab. 60:37.

[2] = molecular target: AVP-V1 sites (Rattus norvegicus, UniProt P30560); assay: [3H]AVP radioligand binding to male rat liver crude membrane preparation (AVP-V1 sites); details: male rat liver membranes; 1 nM [3H]AVP; 30 min at 30° C.; read-out: Receptor Binding Results IC50 (nM) [^3 H]-AVP-V1
Description: (§1) Nonspecific binding (5-10% of the total binding) was determined using 10 μM unlabeled AVP, and the binding reaction was terminated by filtration as described above for the [^3 H]OT binding assay.
(§2) +Butlen, D; Guillon, G; Rajerison, RM; Jard, S; Sawyer, WH; Manning, M. 1978 Mol Pharmacol 14:1006.

[3] = molecular target: AVP-V2 sites (Rattus norvegicus, UniProt Q00788); assay: [3H]AVP radioligand binding to rat kidney medulla crude membrane preparation (AVP-V2 sites); details: rat kidney medulla membranes; 2 nM [3H]AVP; 30 min at 30° C.; read-out: Receptor Binding Results IC50 (nM) [^3 H]-AVP-V2
Description: as §1, §2

[4] = uteri of DES-treated rats, 1 nM [3H]OT, 60 min, 22° C., inhibits specific binding by 50%, read-out: Receptor Binding Results IC50 (nM) [3H]OT

AVP-V1 sites, sequence (P30560 whole entry): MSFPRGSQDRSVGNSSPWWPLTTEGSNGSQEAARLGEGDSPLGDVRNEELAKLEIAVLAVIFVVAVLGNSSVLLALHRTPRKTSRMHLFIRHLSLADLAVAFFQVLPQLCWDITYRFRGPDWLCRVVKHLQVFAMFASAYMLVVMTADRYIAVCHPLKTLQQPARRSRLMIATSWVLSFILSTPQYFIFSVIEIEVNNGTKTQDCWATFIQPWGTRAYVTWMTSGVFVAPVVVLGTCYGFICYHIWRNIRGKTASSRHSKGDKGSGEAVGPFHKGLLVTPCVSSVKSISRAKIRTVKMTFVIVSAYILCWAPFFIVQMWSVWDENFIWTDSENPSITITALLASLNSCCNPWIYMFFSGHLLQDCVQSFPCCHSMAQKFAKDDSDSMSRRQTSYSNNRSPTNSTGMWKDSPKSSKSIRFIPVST
AVP-V2 sites, sequence (Q00788 whole entry): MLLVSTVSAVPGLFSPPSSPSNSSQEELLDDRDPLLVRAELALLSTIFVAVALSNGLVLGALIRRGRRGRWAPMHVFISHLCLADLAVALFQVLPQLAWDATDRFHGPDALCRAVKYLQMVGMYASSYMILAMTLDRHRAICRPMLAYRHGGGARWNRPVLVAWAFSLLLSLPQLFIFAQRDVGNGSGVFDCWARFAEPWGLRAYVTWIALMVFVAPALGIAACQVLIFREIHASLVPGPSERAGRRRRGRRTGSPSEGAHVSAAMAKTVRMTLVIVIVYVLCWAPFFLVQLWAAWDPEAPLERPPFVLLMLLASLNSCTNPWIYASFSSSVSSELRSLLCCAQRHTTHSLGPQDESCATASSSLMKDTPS

CC[C@H](C)[C@@H]1NC(=O)[C@@H](Cc2ccccc2)NC(=O)[C@@H]2CCCN2C(=O)[C@@H](Cc2ccccc2)N(C)C(=O)[C@@H]2[C@@H](O)[C@@H](O)C=NN2C(=O)[C@H]2CCCNN2C1=O [Example 14, cyclo-[D-Phenylalanyl-L-isoleucyl-D-hexahydro-3-pyridazinecarbonyl-(3α,4β,5β)-4,5-dihydroxy-L-2,3,4,5-tetrahydro-3-pyridazinecarbonyl-N-methyl-D-phenylalanyl-L-prolyl]trifluoroacetate salt.] (cyclo(I[X1][X2][dNMeF]P[dF]))
IC50 [1, 4]: 290 nM
IC50 [2]: 10000 nM
IC50 [3]: > 10000 nM

CC[C@H](C)[C@@H]1NC(=O)[C@@H](Cc2ccccc2)NC(=O)[C@@H]2CCCN2C(=O)[C@@H](Cc2ccccc2)N(C)C(=O)[C@@H]2CCC(SC)=NN2C(=O)[C@H]2CCC=NN2C1=O [Example 5, cyclo-[D-Phenylalanyl-L-isoleucyl-D-2,3,4,5-tetrahydro-3-pyidazinecarbonyl-L-2,3,4,5-tetrahydro-6-methylthio-3-pyridazinecarbonyl-N-methyl-D-phenylalanyl-L-prolyl]] (cyclo(I[dPiz(1,6-dehydro)][X7][dNMeF]P[dF]))
IC50 [1, 4]: 27 nM
IC50 [2]: 820 nM
IC50 [3]: 1020 nM

CC[C@H](C)[C@@H]1NC(=O)[C@@H](CC2CCCCC2)NC(=O)[C@@H]2CCCN2C(=O)[C@@H](CC2CCCCC2)N(C)C(=O)[C@@H]2CCC=NN2C(=O)[C@H]2CCC=NN2C1=O [Example 2, cyclo-[D-3-Cyclohexylalanyl-L-isoleucyl-D-2,3,4,5-tetrahydro-3-pyidazinecarbonyl-L-2,3,4,5-tetrahydro-3-pyridazinecarbonyl-3-cyclohexyl-N-methyl-D-alanyl-L-prolyl]] (cyclo(I[dPiz(1,6-dehydro)][Piz(1,6-dehydro)][dNMeCha]P[dCha]))
IC50 [1, 4]: 94 nM

CC[C@H](C)[C@@H]1NC(=S)[C@@H](Cc2ccccc2)NC(=S)[C@@H]2CCCN2C(=O)[C@@H](Cc2ccccc2)N(C)C(=O)[C@@H]2CCC=NN2C(=O)[C@H]2CCC=NN2C1=O [Example 11, cyclo-[D-Thiophenylalanyl-L-isoleucyl-D-2,3,4,5-tetrahydro-3-pyridazinecarbonyl-L-2,3,4,5-tetrahydro-3-pyridazinecarbonyl-N-methyl-D-phenylalanyl-L-thioprolyl]]
IC50 [1, 4]: 4.9 nM
IC50 [2]: 200 nM
IC50 [3]: 430 nM

C=C1C=NN2C(=O)[C@H]3CCC=NN3C(=O)[C@H]([C@@H](C)CC)NC(=O)[C@@H](Cc3ccccc3)NC(=O)[C@@H]3CCCN3C(=O)[C@@H](Cc3ccccc3)N(C)C(=O)[C@@H]2C1 [Example 20, cyclo-[D-Phenylalanyl-L-isoleucyl-D-2,3,4,5-tetrahydro-3-pyridazinecarbonyl-5-methylene-L-2,3,4,5,-tetrahydro-3-pyridazinecarbonyl-N-methyl-D-phenylalanyl-L-prolyl]] (cyclo(I[dPiz(1,6-dehydro)][X3][dNMeF]P[dF]))
IC50 [1, 4]: 37 nM
IC50 [2]: > 10000 nM
IC50 [3]: > 10000 nM

C=CCSC1=N[C@@H]([C@@H](C)CC)C(=O)N2N=CCC[C@@H]2C(=O)N2N=CCC[C@H]2C(=O)N(C)[C@H](Cc2ccccc2)C(=O)N2CCC[C@H]2C(=O)N[C@@H]1Cc1ccccc1 [Example 12, cyclo-[(R)-N-(2-amino-3-phenyl-1-(2-propenylthio)-propylidene)-L-isoleucyl-D-2,3,4,5-tetrahydro-3-pyridazinecarbonyl-L-2,3,4,5-tetrahydro-3-pyridazine-carbonyl-N-methyl-D-phenylalanyl-L-prolyl]] (cyclo(P[X12][dPiz(1,6-dehydro)][Piz(1,6-dehydro)][dNMeF]))
IC50 [1, 4]: 710 nM
IC50 [2]: > 10000 nM
IC50 [3]: > 10000 nM

C=C1C=NN2C(=O)[C@H]3CCC=NN3C(=O)[C@H]([C@@H](C)CC)NC(=S)[C@@H](Cc3ccccc3)NC(=O)[C@@H]3CCCN3C(=O)[C@@H](Cc3ccccc3)N(C)C(=O)[C@@H]2C1 [Example 19, cyclo-[D-Thiophenylalanyl-L-isoleucyl-D-2,3,4,5-tetrahydro-3-pyridazinecarbonyl-5-methylene-L-2,3,4,5-tetrahydro-3-pyridazinecarbonyl-N-methyl-D-phenylalanyl-L-prolyl]]
IC50 [1, 4]: 3.6 nM
IC50 [2]: > 1000 nM
IC50 [3]: > 1000 nM

CC[C@H](C)[C@@H]1NC(=O)[C@@H](Cc2ccccc2)NC(=O)[C@@H]2CCCN2C(=O)[C@@H](Cc2ccccc2)N(C)C(=O)[C@@H]2C[C@@H](CN(C)C)C=NN2C(=O)[C@H]2CCC=NN2C1=O [Example 18, cyclo-[D-Phenylalanyl-L-isoleucyl-D-2,3,4,5-tetrahydro-3-pyridazinecarbonyl-trans-5-(dimethylamino)methyl-L-2,3,4,5,-tetrahydro-3-pyridazinecarbonyl-N-methyl-D-phenylalanyl-L-prolyl] monoacetate] (cyclo(I[dPiz(1,6-dehydro)][X6][dNMeF]P[dF]))
IC50 [1, 4]: 7.8 nM
IC50 [2]: 1850 nM
IC50 [3]: 2800 nM

CC[C@H](C)[C@@H]1NC[C@@H](Cc2ccccc2)NC(=O)[C@@H]2CCCN2C(=O)[C@@H](Cc2ccccc2)N(C)C(=O)[C@@H]2CCC=NN2C(=O)[C@H]2CCC=NN2C1=O [Example 7, cyclo-[N-(2-Amino-3-phenylpropyl)-L-isoleucyl-D-2,3,4,5-tetrahydro-3-pyridazinecarbonyl-L-2,3,4,5-tetrahydro-3-pyridazinecarbonyl-N-methyl-D-phenylalanyl-L-prolyl]]
IC50 [1, 4]: 30000 nM
IC50 [2]: > 30000 nM
IC50 [3]: > 30000 nM

CC[C@H](C)[C@@H]1NC(=O)[C@@H](Cc2ccccc2)NC(=O)[C@@H]2CCCN2C(=O)[C@@H](Cc2ccccc2)N(C)C(=O)[C@@H]2CC(NCCN(C)C)C=NN2C(=O)[C@H]2CCC=NN2C1=O (stereo partly drawn) [Example 16, cyclo-[D-Phenylalanyl-L-isoleucyl-D-2,3,4,5-tetrahydro-3-pyridazinecarbonyl-5-((2-dimethylamino)ethylamino)-L-2,3,4,5,-tetrahydro-3-pyridazinecarbonyl-N-methyl-D-phenylalanyl-L-prolyl] (trifluoroacetate) (High Rf isomer)] (cyclo(I[dPiz(1,6-dehydro)][X4][dNMeF]P[dF]))
IC50 [1, 4]: 220 nM
IC50 [2]: 930 nM
IC50 [3]: 7300 nM

CC[C@H](C)[C@@H]1NC(=O)[C@@H](Cc2ccccc2)NC(=O)[C@@H]2CCCN2C(=O)[C@@H](Cc2ccccc2)N(C)C(=O)[C@@H]2CCCN(C)N2C(=O)[C@H]2CCCN(C)N2C1=O [Example 6, cyclo-[D-Phenylalanyl-L-isoleucyl-D-hexahydro-1-methyl-3-pyridazinecarbonyl-L-hexahydro-1-methyl-3-pyridazinecarbonyl-N-methyl-D-phenylalanyl-L-prolyl]] (cyclo(I[X15][X16][dNMeF]P[dF]))
IC50 [1]: 6250 nM

CC[C@H](C)[C@@H]1NC(=O)[C@@H](Cc2ccccc2)NC(=O)[C@@H]2CCCN2C(=O)[C@@H](Cc2ccccc2)N(C)C(=O)[C@@H]2CCC(=O)NN2C(=O)[C@H]2CCC=NN2C1=O [Example 3, cyclo-[D-Phenylalanyl-L-isoleucyl-D-2,3,4,5-tetrahydro-3-pyridazinecarbonyl-L-hexahydro-6-oxo-3-pyridazinecarbonyl-N-methyl-D-phenylalanyl-L-prolyl]] (cyclo(I[dPiz(1,6-dehydro)][X10][dNMeF]P[dF]))
IC50 [1, 4]: 20 nM
IC50 [2]: 4700 nM
IC50 [3]: 17000 nM

CCOC(=O)C(C(=O)OCC)C1C=NN2C(=O)[C@H]3CCC=NN3C(=O)[C@H]([C@@H](C)CC)NC(=O)[C@@H](Cc3ccccc3)NC(=O)[C@@H]3CCCN3C(=O)[C@@H](Cc3ccccc3)N(C)C(=O)[C@@H]2C1 (stereo partly drawn) [Example 17, cyclo-[D-Phenylalanyl-L-isoleucyl-D-2,3,4,5-tetrahydro-3-pyridazinecarbonyl-5-(2-ethoxy-1-(ethoxycarbonyl)-2-oxoethyl)-L-2,3,4,5,-tetrahydro-3-pyridazinecarbonyl-N-methyl-D-phenylalanyl-L-prolyl] (trifluoroacetate)] (cyclo(I[dPiz(1,6-dehydro)][X14][dNMeF]P[dF]))
IC50 [1, 4]: 200 nM
IC50 [2]: 3000 nM
IC50 [3]: 2400 nM
